Assay results from the NIST ThermoML archive (doi:10.1007/s10765-010-0737-5).

Assay: xn = mol fraction of the nth substance listed
Conditions: Liquid; for viscosity: 101 kPa, Capillary tube (Ostwald / Ubbelohde) method; for mass density: 101.3 kPa

CC(C)CCl [1-chloro-2-methylpropane] + CC(C)OC(C)C
Conditions | mass density [kg/m3] | viscosity [mPa·s]
283.15 K, x1 = 0.0549 | 740.509 | 0.3695
283.15 K, x1 = 0.091 | 745.071 | 0.3728
283.15 K, x1 = 0.1977 | 758.96 | 0.3837
283.15 K, x1 = 0.2934 | 772.077 | 0.3947
283.15 K, x1 = 0.3911 | 785.941 | 0.4069
283.15 K, x1 = 0.5137 | 804.21 | 0.424
283.15 K, x1 = 0.6034 | 818.258 | 0.438
283.15 K, x1 = 0.6769 | 830.206 | 0.4502
283.15 K, x1 = 0.8059 | 852.473 | 0.4739
283.15 K, x1 = 0.9111 | 871.773 | 0.4955
283.15 K, x1 = 0.9646 | 881.981 | 0.5074
283.15 K, x1 = 1 | 888.845 | 0.5155
288.15 K, x1 = 0.0549 | 735.346 | 0.3532
288.15 K, x1 = 0.091 | 739.888 | 0.3565
288.15 K, x1 = 0.1977 | 753.737 | 0.3666
288.15 K, x1 = 0.2934 | 766.807 | 0.3765
288.15 K, x1 = 0.3911 | 780.617 | 0.3876
288.15 K, x1 = 0.5137 | 798.831 | 0.403
288.15 K, x1 = 0.6034 | 812.821 | 0.4152
288.15 K, x1 = 0.6769 | 824.734 | 0.4261
288.15 K, x1 = 0.8059 | 846.936 | 0.447
288.15 K, x1 = 0.9111 | 866.179 | 0.4658
288.15 K, x1 = 0.9646 | 876.368 | 0.4761
288.15 K, x1 = 1 | 883.211 | 0.4833
293.15 K, x1 = 0.0549 | 730.142 | 0.3383
293.15 K, x1 = 0.091 | 734.678 | 0.3412
293.15 K, x1 = 0.1977 | 748.467 | 0.3504
293.15 K, x1 = 0.2934 | 761.481 | 0.3595
293.15 K, x1 = 0.3911 | 775.245 | 0.3694
293.15 K, x1 = 0.5137 | 793.406 | 0.3831
293.15 K, x1 = 0.6034 | 807.35 | 0.3941
293.15 K, x1 = 0.6769 | 819.228 | 0.4038
293.15 K, x1 = 0.8059 | 841.356 | 0.4222
293.15 K, x1 = 0.9111 | 860.549 | 0.4386
293.15 K, x1 = 0.9646 | 870.717 | 0.4478
293.15 K, x1 = 1 | 877.539 | 0.454
298.15 K, x1 = 0.0549 | 724.887 | 0.3219
298.15 K, x1 = 0.091 | 729.395 | 0.3247
298.15 K, x1 = 0.1977 | 743.114 | 0.3337
298.15 K, x1 = 0.2934 | 756.06 | 0.3423
298.15 K, x1 = 0.3911 | 769.763 | 0.3515
298.15 K, x1 = 0.5137 | 787.825 | 0.3644
298.15 K, x1 = 0.6034 | 801.699 | 0.3747
298.15 K, x1 = 0.6769 | 813.519 | 0.3834
298.15 K, x1 = 0.8059 | 835.53 | 0.4003
298.15 K, x1 = 0.9111 | 854.603 | 0.4156
298.15 K, x1 = 0.9646 | 864.749 | 0.4238
298.15 K, x1 = 1 | 871.533 | 0.4296
303.15 K, x1 = 0.0549 | 719.603 | 0.3043
303.15 K, x1 = 0.091 | 724.11 | 0.3069
303.15 K, x1 = 0.1977 | 737.798 | 0.316
303.15 K, x1 = 0.2934 | 750.738 | 0.3246
303.15 K, x1 = 0.3911 | 764.421 | 0.3341
303.15 K, x1 = 0.5137 | 782.446 | 0.3469
303.15 K, x1 = 0.6034 | 796.305 | 0.357
303.15 K, x1 = 0.6769 | 808.11 | 0.3659
303.15 K, x1 = 0.8059 | 830.111 | 0.3826
303.15 K, x1 = 0.9111 | 849.196 | 0.3975
303.15 K, x1 = 0.9646 | 859.307 | 0.4058
303.15 K, x1 = 1 | 866.096 | 0.4112
308.15 K, x1 = 0.0549 | 714.28 | 0.2896
308.15 K, x1 = 0.091 | 718.759 | 0.2926
308.15 K, x1 = 0.1977 | 732.397 | 0.3012
308.15 K, x1 = 0.2934 | 745.3 | 0.3094
308.15 K, x1 = 0.3911 | 758.935 | 0.3184
308.15 K, x1 = 0.5137 | 776.901 | 0.3308
308.15 K, x1 = 0.6034 | 790.719 | 0.3404
308.15 K, x1 = 0.6769 | 802.492 | 0.3489
308.15 K, x1 = 0.8059 | 824.422 | 0.3647
308.15 K, x1 = 0.9111 | 843.468 | 0.3791
308.15 K, x1 = 0.9646 | 853.542 | 0.3867
308.15 K, x1 = 1 | 860.319 | 0.3921
313.15 K, x1 = 0.0549 | 708.887 | 0.2761
313.15 K, x1 = 0.091 | 713.334 | 0.2788
313.15 K, x1 = 0.1977 | 726.882 | 0.287
313.15 K, x1 = 0.2934 | 739.693 | 0.2948
313.15 K, x1 = 0.3911 | 753.227 | 0.3033
313.15 K, x1 = 0.5137 | 771.077 | 0.315
313.15 K, x1 = 0.6034 | 784.802 | 0.324
313.15 K, x1 = 0.6769 | 796.487 | 0.3322
313.15 K, x1 = 0.8059 | 818.264 | 0.3472
313.15 K, x1 = 0.9111 | 837.168 | 0.3607
313.15 K, x1 = 0.9646 | 847.176 | 0.3677
313.15 K, x1 = 1 | 853.902 | 0.3726
